Results as given in publication PMC12291464, “Modifying Antifungal Peptides as Safe Food Preservatives” (Journal of Agricultural and Food Chemistry, 2025).
In brackets after ≈: the same amount, converted by molar mass. Like-named read-outs stand apart in the source and are kept apart here. Residues, ends and D or L forms follow the SMILES beside them.

How the values were obtained:
P. expansum = settings: 24 h
Experimental: (§1) A1163 was grown on potato dextrose agar (PDA) medium at 37 °C for 5 days, and then the conidia were scraped and suspended in PBS with 0.025% (v/v) Tween 20, counted using a hemocytometer, and kept at 4 °C. isolated from peanuts and Pe21 (both kindly provided by Dr. Edward Sionov, ARO, Israel) were grown on PDA medium at 25 °C for 5 days, and then the conidia were scraped and suspended in PBS with 0.025% Tween 20 and kept at 4 °C. RP and methicillin-resistant (MRSA) were grown on LB agar plates, and individual colonies were picked and grown in Mueller–Hinton (MH) broth overnight at 37 °C. was grown on PDA medium at 30 °C, and individual colonies were picked and grown in yeast extract peptone dextrose (YPD) media overnight at 30 °C. All fungal and bacteria strains were maintained at −80 °C in 50% (v/v) glycerol stock.
(§2) For filamentous fungi strains, serial dilutions of 100 μL ranged from 100 to 0.78 μM for each peptide in a 96 well plate using RPMI1640 with 165 μM MOPS. A total of 80 μL of inoculum was suspended with a conidia load of 5 × 10^3 CFU/mL (final density of 2 × 10^3 CFU/mL), and 20 μL of resazurin was diluted in RPMI1640 solution of 0.02% [final concentration of 0.0002% (w/v)]. In the control, 100 μL of treatment was replaced by the same volume with medium, while the negative control was 180 μL of the medium and 20 μL of resazurin solution. Plates were incubated at 37 °C for and 25 °C for and for 24 h. The results were quantified by measuring absorbance at 570 nm with a microplate reader (Tecan). The mean absorbance values were used in subsequent calculations. The growth of resazurin reduction and growth inhibition was calculated using the following normalization: % growth=100−% reduction=abs of test agent−abs of untreated control/abs of reduced resazurin−abs of untreated control The MIC was defined as the lowest concentration of the peptide that inhibited fungal growth by 90%, allowing for only 10% of the normal growth. For bacterial and yeast strains studies, serial dilutions of 100 μL ranged from 100 to 0.78 μM for each peptide in a 96 well plate using MH media for bacteria and YPD for yeast. A total of 100 μL of the microbe in suitable media (5 × 10^5 CFU/mL) was inoculated in each well. In the untreated well (e.g., control), 100 μL of treatment was replaced by the same volume with medium, while in the negative control, media were only without microbes and peptides. After 24 h of incubation at 37 °C for bacteria and 30 °C for yeast, plates were read at 595 nm and MIC was defined as the lowest concentration of peptide that reduced the growth of the microbe to 10% growth.

E. coli = tested on: E. coli
Experimental: as §1, §2

A. Niger = settings: 24 h
Experimental: as §1, §2

MRSA = tested on: MRSA
Experimental: as §1, §2

A. fumigatus = settings: 24 h
Experimental: as §1, §2

[1] = RPMI1640 with MOPS, resazurin, absorbance 570 nm, MIC = lowest concentration inhibiting growth by 90%, average ± SE, 3 biological repeats in triplicates
[2] = MH media, 5 × 10^5 CFU/mL, 24 h at 37 °C, read at 595 nm, MIC = growth reduced to 10%, average ± SE, 3 biological repeats in triplicates

Row | Structure (SMILES) | MIC Values, P. expansum (P. expansum; [1]) [µM] | MIC Values, E. coli (E. coli; [2]) [µM] | MIC Values, A. Niger (A. Niger; [1]) [µM] | MIC Values, MRSA (MRSA; [2]) [µM] | MIC Values, A. fumigatus (A. fumigatus; [1]) [µM] | MIC Values, E. coli (E. coli) [µM] | MIC Values, MRSA (MRSA) [µM] | MIC Values, P. expansum (P. expansum) [µM] | MIC Values, E. coli (E. coli; 24 h) [µM] | MIC Values, A. Niger (A. Niger) [µM] | MIC Values, MRSA (MRSA; 24 h) [µM] | MIC Values, A. fumigatus (A. fumigatus) [µM]
1 | CC[C@H](C)[C@H](NC(=O)[C@H](CCCCN)NC(=O)[C@H](CCCCN)NC(=O)[C@H](Cc1ccccc1)NC(=O)[C@H](CC(C)C)NC(=O)[C@H](CCCCN)NC(=O)[C@@H](N)Cc1ccccc1)C(=O)N[C@@H](CC(C)C)C(=O)N[C@@H](CCCCN)C(=O)N[C@@H](Cc1ccc(O)cc1)C(=O)N[C@@H](CC(C)C)C(N)=O [BP100 F1K] | 6 ± 0 (≈ 8.64 µg/mL) | 3 ± 1 (≈ 4.32 µg/mL) | 42 ± 8 (≈ 60.5 µg/mL) | 3 ± 1 (≈ 4.32 µg/mL) | 10 ± 2 (≈ 14.4 µg/mL) |  |  |  |  |  |  | 
2 | CC[C@H](C)[C@H](N)C(=O)N[C@@H](CCCCN)C(=O)N[C@@H](CC(C)C)C(=O)N[C@@H](Cc1ccccc1)C(=O)N[C@@H](CCCCN)C(=O)N[C@@H](CCCCN)C(=O)N[C@H](C(=O)N[C@@H](CC(C)C)C(=O)N[C@@H](CCCCN)C(=O)N[C@@H](Cc1ccc(O)cc1)C(=O)N[C@@H](CC(C)C)C(N)=O)[C@@H](C)CC [BP100 I1K] | 8 ± 2 (≈ 11.2 µg/mL) | 3 ± 1 (≈ 4.22 µg/mL) | 33 ± 8 (≈ 46.4 µg/mL) | 3 ± 0 (≈ 4.22 µg/mL) | 13 ± 0 (≈ 18.3 µg/mL) |  |  |  |  |  |  | 
3 | CC[C@H](C)[C@H](NC(=O)[C@H](CCCCN)NC(=O)[C@H](CCCCN)NC(=O)[C@H](Cc1ccccc1)NC(=O)[C@H](CC(C)C)NC(=O)[C@H](CCCCN)NC(=O)[C@@H](N)CC(C)C)C(=O)N[C@@H](CC(C)C)C(=O)N[C@@H](CCCCN)C(=O)N[C@@H](Cc1ccc(O)cc1)C(=O)N[C@@H](CC(C)C)C(N)=O [BP100 L1K] | 8 ± 2 (≈ 11.2 µg/mL) | 3 ± 1 (≈ 4.22 µg/mL) | 33 ± 8 (≈ 46.4 µg/mL) | 3 ± 0 (≈ 4.22 µg/mL) | 13 ± 0 (≈ 18.3 µg/mL) |  |  |  |  |  |  | 
4 | CC[C@H](C)[C@H](NC(=O)[C@H](CCCCN)NC(=O)[C@H](CCCCN)NC(=O)[C@H](Cc1ccccc1)NC(=O)[C@H](CC(C)C)NC(=O)[C@H](CCCCN)NC(=O)[C@@H](N)CCCCN)C(=O)N[C@@H](CC(C)C)C(=O)N[C@@H](CCCCN)C(=O)N[C@@H](Cc1ccc(O)cc1)C(=O)N[C@@H](CC(C)C)C(N)=O [BP100, reference compound] | 13 ± 6 (≈ 18.5 µg/mL) |  | 44 ± 8 (≈ 62.5 µg/mL) |  | 6 ± 0 (≈ 8.53 µg/mL) | 3 ± 2 (≈ 4.26 µg/mL) | 17 ± 4 (≈ 24.2 µg/mL) |  |  |  |  | 
5 | C[C@H](N)C(=O)N[C@@H](CCCCN)C(=O)N[C@@H](CCCNC(=N)N)C(=O)N[C@@H](Cc1c[nH]cn1)C(=O)N[C@@H](Cc1c[nH]cn1)C(=O)NCC(=O)N[C@@H](Cc1ccc(O)cc1)C(=O)N[C@@H](CCCCN)C(=O)N[C@@H](CCCNC(=N)N)C(=O)N[C@@H](CCCCN)C(=O)N[C@@H](Cc1ccccc1)C(=O)N[C@@H](Cc1c[nH]cn1)C(=O)N[C@@H](C)C(=O)N[C@@H](CCCCN)C(=O)N[C@@H](CCCNC(=N)N)C(=O)N[C@@H](Cc1c[nH]cn1)C(=O)N[C@@H](Cc1c[nH]cn1)C(=O)NCC(=O)N[C@@H](Cc1ccc(O)cc1)C(=O)N[C@@H](CCCCN)C(=O)N[C@@H](CCCNC(=N)N)C(=O)N[C@@H](CCCCN)C(=O)N[C@@H](Cc1ccccc1)C(=O)N[C@@H](Cc1c[nH]cn1)C(N)=O [P-113 Double] (H-AKRHHGYKRKFHAKRHHGYKRKFH-NH2) | 9 ± 3 (≈ 28 µg/mL) | >200 | 5 ± 1 (≈ 15.6 µg/mL) | >200 | 15 ± 5 (≈ 46.7 µg/mL) |  |  |  |  |  |  | 
6 | C[C@H](N)C(=O)N[C@@H](CCCCN)C(=O)N[C@@H](CCCNC(=N)N)C(=O)N[C@@H](CCCCN)C(=O)N[C@@H](CCCCN)C(=O)NCC(=O)N[C@@H](Cc1ccc(O)cc1)C(=O)N[C@@H](CCCCN)C(=O)N[C@@H](CCCNC(=N)N)C(=O)N[C@@H](CCCCN)C(=O)N[C@@H](Cc1ccccc1)C(=O)N[C@@H](CCCCN)C(N)=O [P-113 H4,5,12K] (H-AKRKKGYKRKFK-NH2) | >200 | >200 | 14 ± 4 (≈ 21.5 µg/mL) | >200 | 5 ± 1 (≈ 7.68 µg/mL) |  |  |  |  |  |  | 
7 | C[C@H](N)C(=O)N[C@@H](CCCCN)C(=O)N[C@@H](CCCNC(=N)N)C(=O)N[C@@H](CCCCN)C(=O)N[C@@H](Cc1c[nH]cn1)C(=O)NCC(=O)N[C@@H](Cc1ccc(O)cc1)C(=O)N[C@@H](CCCCN)C(=O)N[C@@H](CCCNC(=N)N)C(=O)N[C@@H](CCCCN)C(=O)N[C@@H](Cc1ccccc1)C(=O)N[C@@H](Cc1c[nH]cn1)C(N)=O [P-113 H4K] (H-AKRKHGYKRKFH-NH2) |  |  |  |  |  |  |  | >200 | >200 | 14 ± 2 (≈ 21.8 µg/mL) | >200 | 33 ± 8 (≈ 51.3 µg/mL)
8 | C[C@H](N)C(=O)N[C@@H](CCCCN)C(=O)N[C@@H](CCCNC(=N)N)C(=O)N[C@@H](Cc1c[nH]cn1)C(=O)N[C@@H](Cc1c[nH]cn1)C(=O)NCC(=O)N[C@@H](Cc1ccc(O)cc1)C(=O)N[C@@H](CCCCN)C(=O)N[C@@H](CCCNC(=N)N)C(=O)N[C@@H](CCCCN)C(=O)N[C@@H](Cc1ccccc1)C(=O)N[C@@H](CCCCN)C(N)=O [P-113 H12K] (H-AKRHHGYKRKFK-NH2) | >200 | >200 | 17 ± 4 (≈ 26.4 µg/mL) | >200 | 4 ± 1 (≈ 6.22 µg/mL) |  |  |  |  |  |  | 
9 | C[C@H](N)C(=O)N[C@@H](CCCCN)C(=O)N[C@@H](CCCNC(=N)N)C(=O)N[C@@H](Cc1c[nH]cn1)C(=O)N[C@@H](Cc1c[nH]cn1)C(=O)NCC(=O)N[C@@H](Cc1ccc(O)cc1)C(=O)N[C@@H](CCCCN)C(=O)N[C@@H](CCCNC(=N)N)C(=O)N[C@@H](CCCCN)C(=O)N[C@@H](Cc1ccccc1)C(=O)N[C@@H](Cc1c[nH]cn1)C(N)=O [P-113, reference compound] (H-AKRHHGYKRKFH-NH2) |  |  |  |  |  |  |  | >200 | >200 | 14 ± 2 (≈ 21.9 µg/mL) | >200 | 21 ± 4 (≈ 32.8 µg/mL)
